Measured values reported in PubChem BioAssay (NCI).
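Five concentrations, 48 hours, 96-well plates. GI50 marks 50% less growth. TGI denotes the concentration required for complete inhibition of growth.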

Experiments:
Test in all cases: DTP human tumour cell line panel, 48 h
DU-145 prostate = test system: DU-145 prostate
NCI-H522 lung = test system: NCI-H522 lung
MCF7 breast = test system: MCF7 breast
SK-MEL-2 melanoma = test system: SK-MEL-2 melanoma
IGROV1 ovarian = test system: IGROV1 ovarian
HOP-62 NSCLC = test system: HOP-62 NSCLC
T-47D breast = test system: T-47D breast
HOP-92 NSCLC = test system: HOP-92 NSCLC
OVCAR-4 ovarian = test system: OVCAR-4 ovarian
CCRF-CEM leukemia = test system: CCRF-CEM leukemia
UO-31 renal = test system: UO-31 renal
NCI-H226 lung = test system: NCI-H226 lung
A498 renal = test system: A498 renal
RXF 393 renal = test system: RXF 393 renal
UACC-257 melanoma = test system: UACC-257 melanoma
HCC-2998 colon = test system: HCC-2998 colon
HL-60(TB) leukemia = test system: HL-60(TB) leukemia
K-562 leukemia = test system: K-562 leukemia
MOLT-4 leukemia = test system: MOLT-4 leukemia
TK-10 renal = test system: TK-10 renal

COc1ccc2c(NCCCCCCCCNc3c4ccccc4nc4cc(OC)ccc34)c3ccccc3nc2c1
GI50 (DU-145 prostate): 49.8 nM | TGI (DU-145 prostate): 339 nM | GI50 (NCI-H522 lung): 11 nM | TGI (NCI-H522 lung): 187 nM | GI50 (MCF7 breast): 27.9 nM | TGI (MCF7 breast): 192 nM | GI50 (SK-MEL-2 melanoma): 162 nM | TGI (SK-MEL-2 melanoma): 358 nM | TGI (IGROV1 ovarian): 108 nM | GI50 (HOP-62 NSCLC): 65.8 nM | TGI (HOP-62 NSCLC): 318 nM | GI50 (T-47D breast): 50.8 nM | TGI (T-47D breast): 295 nM | GI50 (HOP-92 NSCLC): 1240 nM | TGI (HOP-92 NSCLC): 2580 nM | GI50 (OVCAR-4 ovarian): 93.8 nM | TGI (OVCAR-4 ovarian): 446 nM | GI50 (CCRF-CEM leukemia): 25.3 nM | TGI (CCRF-CEM leukemia): 431 nM | GI50 (UO-31 renal): 48.8 nM | TGI (UO-31 renal): 223 nM | GI50 (NCI-H226 lung): 128 nM | TGI (NCI-H226 lung): 961 nM | GI50 (A498 renal): 129 nM | TGI (A498 renal): 437 nM | GI50 (RXF 393 renal): 117 nM | TGI (RXF 393 renal): 332 nM | GI50 (UACC-257 melanoma): 221 nM | TGI (UACC-257 melanoma): 1070 nM | GI50 (HCC-2998 colon): 71.8 nM | TGI (HCC-2998 colon): 254 nM | GI50 (HL-60(TB) leukemia): 363 nM | TGI (HL-60(TB) leukemia): 2130 nM | GI50 (K-562 leukemia): 52.9 nM | TGI (K-562 leukemia): 300 nM | GI50 (MOLT-4 leukemia): 54.6 nM | TGI (MOLT-4 leukemia): 2320 nM | GI50 (TK-10 renal): 126 nM | TGI (TK-10 renal): 763 nM
